The target of data set [1] is Bromodomain-containing protein 4 (Homo sapiens, UniProt O60885). Nature of the data set: Inhibition of BRD4 BD1 (unknown origin) by TR-FRET assay.
The subject of data set [2] is MCF7. In words: Antiproliferative activity against human MCF7 cells assessed as reduction in cell viability incubated for 72 hrs by MTT assay. Format: functional, cell-based. Conditions: MCF7, 72 h.
In data set [3] the test system is HepG2. Nature of the data set: Antiproliferative activity against human HepG2 cells assessed as reduction in cell viability incubated for 72 hrs by MTT assay. The format is functional, cell-based. As to conditions: HepG2, 72 h.
Data set [4] relates to HT-29. Nature of the data set: Antiproliferative activity against human HT-29 cells assessed as reduction in cell viability incubated for 72 hrs by MTT assay. The format is functional, cell-based. As to conditions: HT-29, 72 h.
A short description of data set [5]: Cytotoxicity against human GES1 cells assessed as reduction in cell viability incubated for 72 hrs by MTT assay. The format is toxicity, cell-based.
The test system of data set [6] is HepG2. Nature of the data set: Inhibition of c-myc expression in human HepG2 cells at 5 uM incubated for 24 hrs by Western blot analysis. The format is functional, cell-based.
The subject of data set [7] is HepG2. Nature of the data set: Induction of cell cycle arrest in human HepG2 cells assessed as accumulation at G0/G1 phase at 5 uM incubated for 24 hrs by flow cytometry (Rvb= 46.5%). Format: functional.
Data set [8] deals with HepG2. Nature of the data set: Induction of apoptosis in human HepG2 cells assessed as early apoptotic cells at 5 uM incubated for 24 hrs by Annexin-V/PI staining based flow cytometry (Rvb=4.48%). Format: functional.
The subject of data set [9] is HepG2. Nature of the data set: Induction of cell cycle arrest in human HepG2 cells assessed as accumulation at S phase at 5 uM incubated for 24 hrs by flow cytometry (Rvb= 20.1%). The format is functional.
Data set [10] concerns HepG2. Nature of the data set: Induction of apoptosis in human HepG2 cells assessed as late apoptotic cells at 5 uM incubated for 24 hrs by Annexin-V/PI staining based flow cytometry (Rvb=0.66%). The format is functional.
Data set [11] concerns HepG2. Nature of the data set: Induction of apoptosis in human HepG2 cells assessed as total apoptotic cells at 5 uM incubated for 24 hrs by Annexin-V/PI staining based flow cytometry (Rvb=5.14%). Format: functional.
For data set [12], the system named is HepG2. Nature of the data set: Induction of apoptosis in human HepG2 cells assessed as increase in cleaved caspase-3 level at 2.5 uM incubated for 24 hrs by Western blot analysis. Format: functional, cell-based.
The subject of data set [13] is HepG2. In words: Induction of cell cycle arrest in human HepG2 cells assessed as accumulation at G2/M phase at 5 uM incubated for 24 hrs by flow cytometry (Rvb= 14.05%). Format: functional.
In data set [14] the test system is HepG2. In words: Induction of apoptosis in human HepG2 cells assessed as viable cells at 5 uM incubated for 24 hrs by Annexin-V/PI staining based flow cytometry (Rvb=94.0%). Format: functional. As to conditions: read-out: Activity.
Data set [15] deals with HepG2. Nature of the data set: Induction of apoptosis in human HepG2 cells assessed as necrotic cells at 5 uM incubated for 24 hrs by Annexin-V/PI staining based flow cytometry (Rvb=0.85%). Format: functional.
In data set [16] the test system is HepG2. In words: Induction of apoptosis in human HepG2 cells assessed as increase in p21 level at 2.5 uM incubated for 24 hrs by Western blot analysis. Format: functional, cell-based.

Calls of active or inactive are those of the source. The rule behind the calls is not given here.

On to `Cc1ccccc1Oc1ccc(NS(C)(=O)=O)cc1-c1ccc2[nH]c(=O)c(C)nc2c1`, for which half-maximal inhibition in [1] (IC50) required 2120 nM.
In data set [1], `COc1cc(Cl)ccc1Oc1ccc(NS(C)(=O)=O)cc1-c1ccc2[nH]c(=O)c(C)nc2c1` registered an IC50 of 2330 nM.
As to `CCS(=O)(=O)Nc1ccc(Oc2ccc(F)cc2F)c(-c2ccc3[nH]c(=O)c(C)nc3c2)c1`, the IC50 in data set [2] is 9.78 µM; in data set [1], 48.3 nM; in data set [3], 5.41 µM; in [4] it was 16.8 µM. Moreover, the half-inhibitory concentration (IC50) at 72 h in [5] was found to be 20.2 µM.
For the compound `Cc1nc2cc(-c3cc(C(=O)N4CCN(C)CC4)ccc3Oc3ccc(F)cc3F)ccc2[nH]c1=O`, half-maximal inhibition in data set [1] (IC50) required 1310 nM.
`COC(=O)c1ccc(Oc2ccc(F)cc2F)c(-c2ccc3[nH]c(=O)c(C)nc3c2)c1` came in with a half-maximal inhibitory concentration (IC50) in data set [1] of 4220 nM.
For the compound `CCc1nc2cc(-c3cc(NS(C)(=O)=O)ccc3Oc3ccc(F)cc3F)ccc2[nH]c1=O`, the figures for the IC50 in data set [2], in data set [3] and in data set [4] were 1.93 µM, 14.8 µM and 16.5 µM, respectively. Moreover, the 50% inhibitory concentration (IC50) at 72 h in data set [5] came to 29.8 µM.
In the case of `Cc1nc2cc(-c3cc(C(=O)N4CCOCC4)ccc3Oc3ccc(F)cc3F)ccc2[nH]c1=O`, the half-inhibitory concentration (IC50) in data set [1] is 1480 nM.
With `Cc1nc2cc(-c3cc(C(C)O)ccc3Oc3ccc(F)cc3F)ccc2[nH]c1=O` (stereo not given), the IC50 in [2] was found to be 34.5 µM; in data set [1], 406 nM; in data set [3] it was 33.5 µM; in data set [4], 20.2 µM. In addition, in [5], the half-inhibitory concentration (IC50) at 72 h is 30.8 µM.
For `Cc1nc2cc(-c3cc(S(C)(=O)=O)ccc3Oc3ccc(F)cc3F)ccc2[nH]c1=O`, 3970 nM corresponded to half-maximal inhibition in data set [1] (IC50).
As for `Cc1nc2cc(-c3cc(NS(C)(=O)=O)ccc3Oc3ccc(F)cc3)ccc2[nH]c1=O`, the IC50 in data set [2] was 3.81 µM; in data set [1], 103 nM; in data set [3] it was 11.3 µM; in data set [4] it was 6.4 µM. For the same compound, the IC50 at 72 h in data set [5] stood at 36.5 µM.
With `CCS(=O)(=O)Nc1ccc(Oc2ccc(F)cc2F)c(-c2cn(C)c(=O)c3[nH]ccc23)c1` [MIVEBRESIB], the IC50 in data set [2] worked out at 12.3 µM; in data set [1], 0.7 nM; in data set [3] it was 4.29 µM; in data set [4], 1.84 µM. For the same compound, the inhibition entry in [6] was “Active”. Further, the Activity in data set [7] is reported as 56.2%; in data set [8] it was 32%; in data set [9], 13.1%; in data set [10], 2.81%; in data set [11] it was 34.81%; in data set [13] it was 19.6%. The Activity in data set [15] is recorded as 1.63%. For the same compound, the outcome in [12] and in [16] was Active. The 50% inhibitory concentration (IC50) at 72 h in data set [5] was found to be 4.31 µM. In addition, the viability at 5 µM in data set [14] came out at 63.6%.
As for `Cc1nc2cc(-c3cc(NS(C)(=O)=O)ccc3Oc3ccc(Cl)cc3)ccc2[nH]c1=O`, the concentration for half-maximal inhibition (IC50) in [2] came out at 4.64 µM; in data set [1], 341 nM; in data set [3], 11.3 µM; in [4] it was 8.09 µM. Also, the IC50 at 72 h in data set [5] turned out to be 18.1 µM.
`COc1ccccc1Oc1ccc(NS(C)(=O)=O)cc1-c1ccc2[nH]c(=O)c(C)nc2c1` gave a half-inhibitory concentration (IC50) in [1] of 2830 nM.
On to `Cc1nc2cc(-c3cc(NS(C)(=O)=O)ccc3Oc3ccc(F)cc3Cl)ccc2[nH]c1=O`, for which 1560 nM corresponded to half-maximal inhibition in data set [1] (IC50).
In data set [1], `Cc1nc2cc(-c3cc(C=O)ccc3Oc3ccc(F)cc3F)ccc2[nH]c1=O` came in with a 50% inhibitory concentration (IC50) of 2510 nM.
For the compound `CCS(=O)(=O)Cc1ccc(Oc2ccc(F)cc2F)c(-c2ccc3[nH]c(=O)c(C)nc3c2)c1`, the IC50 in [2] is over 50 µM; in data set [1], 777 nM; in [3], over 50 µM; in data set [4] it was 25.1 µM. In addition, in [5], the concentration for half-maximal inhibition (IC50) at 72 h was found to be 45.8 µM.
In the case of `Cc1nc2cc(-c3cc(C(C)(C)O)ccc3Oc3ccc(F)cc3F)ccc2[nH]c1=O`, half-maximal inhibition in data set [1] (IC50) required 1130 nM.
With `Cc1nc2cc(-c3cc(CS(C)(=O)=O)ccc3Oc3ccc(F)cc3F)ccc2[nH]c1=O`, the IC50 in data set [2] is over 50 µM; in [1], 753 nM; in data set [3] it was 22.9 µM; in data set [4], 17.6 µM. The IC50 at 72 h in data set [5] was 36.1 µM.
For `Cc1nc2cc(-c3cc(C(=O)NCCO)ccc3Oc3ccc(F)cc3F)ccc2[nH]c1=O`, the 50% inhibitory concentration (IC50) was over 50 µM in data set [2], 621 nM in data set [1], 17.9 µM in [3] and 15.1 µM in [4]. For the same compound, the IC50 at 72 h in [5] was over 100 µM.
In the case of `Cc1nc2cc(-c3cc(NS(C)(=O)=O)ccc3Oc3ccc(F)cc3F)ccc2[nH]c1=O`, the half-inhibitory concentration (IC50) in data set [2] was found to be 7.44 µM; in [3], 16.1 µM; in [4] it was 6.86 µM. Also, the 50% inhibitory concentration (IC50) at 72 h in data set [5] came out at 33.5 µM.
For `Cc1nc2cc(-c3cc(NS(C)(=O)=O)ccc3Oc3ccccc3C(F)(F)F)ccc2[nH]c1=O`, in data set [1], the midpoint of inhibition, the IC50, lay at 2650 nM.

For the origin of these results see ChEMBL document CHEMBL5236660, “Design, synthesis, and biological evaluation of quinoxalinone derivatives as potent BRD4 inhibitors” (Bioorg Med Chem, 2023).
